Assays:
[1] = biological target: T1, Androgen receptor (Homo sapiens, UniProt P10275)
T1 sequence (P10275 whole entry): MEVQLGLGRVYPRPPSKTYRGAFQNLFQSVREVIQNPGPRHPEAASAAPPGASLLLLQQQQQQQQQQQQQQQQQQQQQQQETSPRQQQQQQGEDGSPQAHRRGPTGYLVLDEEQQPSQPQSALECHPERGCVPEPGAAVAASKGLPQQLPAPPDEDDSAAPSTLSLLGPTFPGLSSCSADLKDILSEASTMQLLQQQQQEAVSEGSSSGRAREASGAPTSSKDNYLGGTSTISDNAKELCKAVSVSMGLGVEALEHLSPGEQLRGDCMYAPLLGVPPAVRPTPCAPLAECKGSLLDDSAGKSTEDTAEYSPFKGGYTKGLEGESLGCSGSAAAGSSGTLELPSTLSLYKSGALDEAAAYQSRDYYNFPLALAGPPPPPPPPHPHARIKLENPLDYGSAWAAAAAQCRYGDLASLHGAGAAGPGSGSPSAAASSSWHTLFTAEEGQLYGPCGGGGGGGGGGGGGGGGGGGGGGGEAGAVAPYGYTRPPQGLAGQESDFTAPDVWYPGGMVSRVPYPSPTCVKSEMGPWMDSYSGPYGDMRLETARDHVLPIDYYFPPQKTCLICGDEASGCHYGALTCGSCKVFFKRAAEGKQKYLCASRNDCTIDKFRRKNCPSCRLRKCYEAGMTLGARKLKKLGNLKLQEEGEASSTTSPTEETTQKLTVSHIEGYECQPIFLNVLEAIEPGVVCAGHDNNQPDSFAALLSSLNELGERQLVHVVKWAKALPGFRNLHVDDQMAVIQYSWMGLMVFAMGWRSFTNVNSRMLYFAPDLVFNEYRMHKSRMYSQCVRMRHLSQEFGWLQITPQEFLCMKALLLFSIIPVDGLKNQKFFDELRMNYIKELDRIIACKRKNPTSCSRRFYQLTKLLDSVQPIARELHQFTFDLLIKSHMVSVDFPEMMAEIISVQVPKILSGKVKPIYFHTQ
Description: Antagonist activity at human androgen receptor expressed in human MDA-MB453 cells by luciferase reporter gene assay

[2] = biological target: T1, Androgen receptor; test: biochemical
Description: Displacement of [3H]DHT from human cloned androgen receptor expressed in Sf9 cells

[3] = test system: Syrian golden hamster; test: Reduction of wax ester production in Syrian hamster ear topically dosed at 1% twice daily for 5 days per week for two weeks measured after 18 to 24 hrs of final dose by HPLC lipid analysis; assay type: functional, Mesocricetus auratus; design: scale not given: the % may be the effect or the level left
[4] = test system: Syrian golden hamster; test: Reduction of cholesterol ester production in Syrian hamster ear topically dosed at 1% twice daily for 5 days per week for two weeks measured after 18 to 24 hrs of final dose by HPLC lipid analysis; assay type: functional, Mesocricetus auratus; design: scale not given: the % may be the effect or the level left

SMILES | IC50 [1] [nM] | IC50 [2] [nM] | Activity [3] [%] | Activity [4] [%]
CC(C)(C)Sc1ccc(C#N)c(C(F)(F)F)c1 | – | 315 | – | –
N#Cc1ccc(SC2CCC2)cc1C(F)(F)F | 167 | 194 | – | –
COc1cc(SCC2CCC2)ccc1C#N | – | 441 | – | –
N#Cc1ccc(SCC2CC2)cc1C(F)(F)F | 133 | 35 | 43 | 35
N#Cc1ccc(SCC2CCC2)cc1C(F)(F)F | 702 | 63 | – | –
CC(C)Sc1ccc(C#N)c(C(F)(F)F)c1 | 89 | 20 | 46 | 40
CCCCSc1ccc(C#N)c(OC)c1 | 66 | 84 | – | –
Cc1ccccc1Sc1ccc(C#N)c(C(F)(F)F)c1 | 123 | 225 | – | –
COc1ccccc1Sc1ccc(C#N)c(C(F)(F)F)c1 | 37 | 56 | – | –
Cc1cccc(C)c1Sc1ccc(C#N)c(C(F)(F)F)c1 | – | 411 | – | –
Cc1cc(C)c(Sc2ccc(C#N)c(C(F)(F)F)c2)c(C)c1 | – | 1340 | – | –
COc1cc(SCCC(C)C)ccc1C#N | – | 1730 | – | –
CCCSc1ccc(C#N)c(C(F)(F)F)c1 | 11 | 23 | – | –
CCCCSc1ccc(C#N)c(C(F)(F)F)c1 | 838 | 49 | – | –
Cc1ccccc1Sc1ccc(C#N)cc1Cl | 78 | 43 | – | –
Cc1ccccc1[S+]([O-])c1ccc(C#N)cc1Cl (configuration not stated) | – | > 10000 | – | –
CC(C)CCSc1ccc(C#N)c(C(F)(F)F)c1 | – | 519 | – | –
COc1cc(SCC2CC2)ccc1C#N | 55 | 169 | – | –
N#Cc1ccc(Sc2ccccc2F)cc1C(F)(F)F | 54 | 184 | 64 | 50
COc1cc(Sc2ccccc2OC)ccc1C#N | 35 | 20 | – | –
CC1(C)C(=O)N(c2ccc(C#N)c(C(F)(F)F)c2)C(=O)N1CCCCO [RU-58841] | – | – | 95 | –

Second part, led by results:

IC50 [1] [nM] | IC50 [2] [nM] | SMILES | Activity [3] [%] | Activity [4] [%]
> 1000 | 40 | CCCSc1ccc(C#N)c(OC)c1 | – | –
10 | 29 | COc1cc(SC(C)C)ccc1C#N | 59 | 46
– | 353 | COc1cc(C#N)ccc1Oc1cccc(C)c1 | – | –
30 | 43 | COc1cc(Sc2c(C)cccc2C)ccc1C#N | 66 | 45
48 | 115 | COc1cc(C#N)ccc1Oc1ccccc1C | – | –
69 | 39 | COc1cc(Sc2c(C)cc(C)cc2C)ccc1C#N | – | –
– | 5210 | COc1cc(C#N)ccc1Oc1ccc(C)cc1 | – | –
197 | 57 | COc1cc(Oc2cccc(C)c2)ccc1C#N | – | –
81 | 24 | COc1cc(Oc2ccccc2C)ccc1C#N | – | –
209 | 200 | COc1cc(Oc2ccc(C)cc2)ccc1C#N | – | –

— ChEMBL document CHEMBL1153273, “4-(Alkylthio)- and 4-(arylthio)-benzonitrile derivatives as androgen receptor antagonists for the topical suppression of sebum production” (Bioorg Med Chem Lett, 2009)
